{"source": "paper PMC13195669", "about": "“GPR3 Ligands Discovered through Combined Virtual and Conformational Biosensor-Based Screening” (Journal of the American Chemical Society, 2026)", "biological_target": "T1, S1P receptor 1 (S1PR1) (Homo sapiens, UniProt P21453)", "T1 construct": "expressed in transfected cells; host or cells: HEK293A, transient", "T1 sequence (P21453 whole entry, species assumed)": "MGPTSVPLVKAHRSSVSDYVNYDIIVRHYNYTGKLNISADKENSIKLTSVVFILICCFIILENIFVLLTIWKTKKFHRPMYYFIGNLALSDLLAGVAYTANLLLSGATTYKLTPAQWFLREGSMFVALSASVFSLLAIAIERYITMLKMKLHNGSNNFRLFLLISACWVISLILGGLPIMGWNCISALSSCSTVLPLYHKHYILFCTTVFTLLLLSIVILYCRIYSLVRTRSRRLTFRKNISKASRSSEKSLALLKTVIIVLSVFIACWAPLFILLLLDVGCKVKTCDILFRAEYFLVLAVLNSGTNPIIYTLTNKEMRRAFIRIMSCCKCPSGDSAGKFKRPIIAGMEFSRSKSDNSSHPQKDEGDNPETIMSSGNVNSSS", "assay": "cAMP GloSensor 22F, agonist-stimulated S1PR1", "format": "cell-based", "conditions": "preincubation with 100 μM or 10 μM; 10 µM forskolin", "procedure": "Next, we used the classical cAMP GloSensor technology to assess the target selectivity profile of 33. […] In addition, we tested the effects of 33 on cAMP changes mediated by agonist-stimulated GPCRs phylogenetically close to GPR3 and coupling to Gs or Gi/o proteins.\nBRET-based GPCR conformational sensor experiments\nCells expressing the conformational GPCR biosensors were grown for 24 h (stable cells) or 48 h (transiently transfected cells) in white 96-well plates and washed with 100 µl of HBSS. After washing, cells were incubated for 2 minutes with a 1/1000 solution of the furimazine stock solution (Promega; cat. no. N1662). Three baseline BRET reads were recorded and averaged prior to the addition of serial dilutions of ligands or veh icle control and subsequent BRET reads. […] BRE T donor emission was quantified with a 470/80 nm monochromator. […] Experiments were carried out using a CLARIOstar plate reader.\nFRET- and BRET-based measurements of cAMP levels and Gs dissociation/reassociation Transfected cells grown in black 96-well plates were washed twice with 100 µl of HBSS 48 h after transfection and incubated with HBSS. […] Three baseline FRET/BRET reads were recorded and averaged prior to the addition of serial dilutions of ligands or vehicle control and sub-sequent FRET/BRET reads. […] FRET donor emission was quantified with a 480/10 nm filter. […]\nLuminescence measurement using the cAMP GloSensor™ 22F […]"}
{"smiles": "N=c1n(Cc2ccccc2)c2ccccc2n1CC1CC1", "note": "[compound 33]", "values": [{"measurement": "effect on agonist-induced cAMP change mediated by S1PR1", "value": "neither 100 μM nor 10 μM 33 significantly altered"}]}
